Measurements from US10730826B2, “Ketone inhibitors of lysine gingipain” (CORTEXYME, INC., priority 2016, dated 2020).

Experiments:
lysine gingipain (Kgp) [1] = molecular target: lysine gingipain (Kgp) (Porphyromonas gingivalis (Bacteroides gingivalis), UniProt P72194); assay: biochemical; format: biochemical
Method: (§1) The specific assay conditions were as follows. Buffer: pH=7.5, 100 mM Tris-HCl, 75 mM NaCl, 2.5 mM CaCl2), 10 mM cysteine, 1% DMSO after all additions. Protein: 0.1 nM Kgp, isolated from culture of Porphyromonas gingivalis, as described by Pike et al. (J. Biol. Chem. 1994, 269(1), 406), and Potempa and Nguyen (Current Protocols in Protein Science. 2007, 21.20.1-21.20.27). Fluorogenic substrate: 10 μM Z-His-Glu-Lys-MCA. Time=90 minutes. Temperature=37° C.
(§2) Further assays to measure the inhibitory activity of compounds of the present invention against Kgp and cathepsins B, H, K, L, and S were conducted as described in Example 66. The capacities of the compounds to inhibit the activity of cathepsins F, V, and Z were also measured.

[2] = Pharmacokinetics in male CD-1 mice dosed p.o.; format: in vivo; conditions: p.o. 10 mg/kg, compared to reference compound 73
lysine gingipain (Kgp) [3] = assay: biochemical; format: biochemical, Porphyromonas gingivalis; conditions: as compared to reference compound 73
Method: as §1, §2

Question: Which IC50 (lysine gingipain (Kgp) [1]; IC50 (nM) Kgp, Table 4) does the source give for `NCCCCC(NC(=O)c1cccnc1Br)C(=O)COc1c(F)cccc1F` (centres unmarked) [Compound 34a] here?
Answer: 0.13 nM

Question: With `NCCCCC(NC(=O)c1ccc(F)cc1)C(=O)COc1c(F)cccc1F` (centres unmarked) [Compound 35a] as the molecule, how does the IC50 (lysine gingipain (Kgp) [1]; IC50 (nM) Kgp, Table 4) read?
Answer: 0.1 nM

Question: Which IC50 (lysine gingipain (Kgp) [1]; IC50 (nM) Kgp, Table 4) does the source give for `NCCCCC(NC(=O)c1ccccc1)C(=O)C(F)F` (centres unmarked) [Compound 37a] here?
Answer: > 100 nM

Question: For `NCCCCC(NC(=O)C1CCCC1)C(=O)Cn1cnccc1=O` (centres unmarked) [Compound 39a], which IC50 (lysine gingipain (Kgp) [1]; IC50 (nM) Kgp, Table 4) is on record?
Answer: > 100 nM

Question: With `NCCCCC(NC(=O)C1CCCC1)C(=O)Cn1ccc(=O)nc1` (centres unmarked) [Compound 40a] as the molecule, how does the IC50 (lysine gingipain (Kgp) [1]; IC50 (nM) Kgp, Table 4) read?
Answer: 30.3 nM

Question: For `NCCCCC(NC(=O)C1CCCC1)C(=O)Cn1cncc(F)c1=O` (centres unmarked) [Compound 41a], which IC50 (lysine gingipain (Kgp) [1]; IC50 (nM) Kgp, Table 4) is on record?
Answer: > 100 nM

Question: For `NCCCCC(NC(=O)c1cccnc1)C(=O)COc1c(F)ccc(F)c1F` (centres unmarked) [Compound 42a], which IC50 (lysine gingipain (Kgp) [1]; IC50 (nM) Kgp, Table 4) is on record?
Answer: 0.06 nM

Question: For `NCCCCC(NC(=O)c1cccnc1)C(=O)COc1c(F)cccc1F` (centres unmarked) [Compound 43a], which IC50 (lysine gingipain (Kgp) [1]; IC50 (nM) Kgp, Table 4) is on record?
Answer: 0.09 nM

Question: What does the source list for `CN(C)c1ccc(/N=N/c2ccc(C(=O)NCc3cc(F)c(OCC(=O)C(CCCCN)NC(=O)c4cccc(N=[N+]=[N-])c4)c(F)c3)cc2)cc1` (centres unmarked) [Compound 44a]?
Answer: IC50 (lysine gingipain (Kgp) [1]; IC50 (nM) Kgp, Table 4): 3.04 nM; IC50 (lysine gingipain (Kgp) [1]; Kgp IC50 (nM), Table 5, probe compounds): 3 nM

Question: With `COC(C)(C)C(=O)N[C@@H](CCCCN)C(=O)COc1c(F)cccc1F` [Compound 48, (S)—N-(7-amino-1-(2,6-difluorophenoxy)-2-oxoheptan-3-yl)-2-methoxy-2-methylpropanamide] as the molecule, how does the oral availability [2] read?
Answer: improved oral availability

Question: And the plasma concentrations [2]?
Answer: increased plasma concentrations

Question: With `COC(C)(C)C(=O)NC(CCCCN)C(=O)COc1c(F)cccc1F` (centres unmarked) [Compound 48a] as the molecule, how does the IC50 (lysine gingipain (Kgp) [1]; IC50 (nM) Kgp, Table 4) read?
Answer: 0.07 nM

Question: Which “concentrations in the brain and cerebrospinal fluid (CSF)” value [2] does the source give for `NCCCC[C@H](NC(=O)C1CCCC1)C(=O)COc1ccon1` [Compound 49, (S)—N-(7-amino-1-(isoxazol-3-yloxy)-2-oxoheptan-3-yl)cyclopentanecarboxamide] here?
Answer: reduced concentrations in the brain and/or cerebrospinal fluid

Question: For `NCCCCC(NC(=O)C1CCCC1)C(=O)COc1ccon1` (centres unmarked) [Compound 49a], which IC50 (lysine gingipain (Kgp) [1]; IC50 (nM) Kgp, Table 4) is on record?
Answer: 0.23 nM

Question: Which “selectivity for Kgp over endogenous cathepsins” value (lysine gingipain (Kgp) [3]) does the source give for `NCCCC[C@H](NC(=O)c1ccccn1)C(=O)COc1c(F)ccc(F)c1F` [Compound 50, (S)—N-(7-amino-2-oxo-1-(2,3,6-trifluorophenoxy)heptan-3-yl)picolinamide] here?
Answer: increased selectivity

Question: Which IC50 (lysine gingipain (Kgp) [1]; IC50 (nM) Kgp, Table 4) does the source give for `NCCCCC(NC(=O)c1ccncc1)C(=O)COc1c(F)ccc(F)c1F` (centres unmarked) [Compound 52a] here?
Answer: 0.06 nM

Question: For `NCCCC[C@H](NC(=O)c1ccc(F)nc1)C(=O)COc1ccon1` [Compound 55, (S)—N-(7-amino-1-(isoxazol-3-yloxy)-2-oxoheptan-3-yl)-6-fluoronicotinamide], which “selectivity for Kgp over endogenous cathepsins” value (lysine gingipain (Kgp) [3]) is on record?
Answer: far more selective

Question: For `NCCCCC(NC(=O)c1cccnc1F)C(=O)COc1ccon1` (centres unmarked) [Compound 56a], which IC50 (lysine gingipain (Kgp) [1]; IC50 (nM) Kgp, Table 4) is on record?
Answer: 0.1 nM

Question: Which IC50 (lysine gingipain (Kgp) [1]; IC50 (nM) Kgp, Table 4) does the source give for `COC(C)(C)C(=O)NC(CCCCN)C(=O)COc1ccon1` (centres unmarked) [Compound 57a] here?
Answer: 0.09 nM

Question: Which IC50 (lysine gingipain (Kgp) [1]; IC50 (nM) Kgp, Table 4) does the source give for `CS(C)(=O)=CC(=O)C(CCCCN)NC(=O)C1CCCC1` (centres unmarked) [Compound 58a] here?
Answer: 4.66 nM

Question: For `C[N+](C)(C)c1ccc(C(=O)NC(CCCCN)C(=O)COc2ccon2)cn1` (centres unmarked) [Compound 61a], which IC50 (lysine gingipain (Kgp) [1]; IC50 (nM) Kgp, Table 4) is on record?
Answer: 0.43 nM

Question: Which IC50 (lysine gingipain (Kgp) [1]; IC50 (nM) Kgp, Table 4) does the source give for `CN(C)c1ccc(C(=O)NC(CCCCN)C(=O)COc2ccon2)cn1` (centres unmarked) [Compound 62a] here?
Answer: 0.14 nM

Question: Which IC50 (lysine gingipain (Kgp) [1]; IC50 (nM) Kgp, Table 4) does the source give for `COC(C)(C)C(=O)NC(CCCCN)C(=O)COc1cc(C)nc(C)c1` (centres unmarked) [Compound 63a] here?
Answer: 0.09 nM

Question: Which IC50 (lysine gingipain (Kgp) [1]; IC50 (nM) Kgp, Table 4) does the source give for `COC(C)(C)C(=O)NC(CCCCN)C(=O)COc1cccnc1` (centres unmarked) [Compound 64a] here?
Answer: 0.4 nM

Question: For `COC(C)(C)C(=O)NC(CCCCN)C(=O)COc1cnc(C)nc1` (centres unmarked) [Compound 65a], which IC50 (lysine gingipain (Kgp) [1]; IC50 (nM) Kgp, Table 4) is on record?
Answer: 0.16 nM
